The values below come from the supplement of paper PMC10307832.

Compound in this assay: C1=CC=C(C(=C1)C2=CC=C(C=C2)C3=CSC4=C3C(=C(C(=O)N4)C#N)O)O + COc1cccc2cc(-c3nc([C@H]4CC[C@H](C(=O)O)CC4)n4ncnc(N)c34)[nH]c12 [OSI-027] (partner 0.5 µM)
Description: relative viability (nuclei count vs DMSO), 5 days (fraction); higher = more cells survive. The method in brief: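 Relative viability was taken as the ratio of nuclei in treated wells to nuclei in vehicle wells. Lung cancer cell lines in 1536-well plates received compounds by pin tool one day after seeding, either one drug alone or a fixed anchor-drug dose plus five library-drug doses (not always all listed) in √10 steps. Nuclei were counted on 4× images after 5 days of treatment, and values are medians of duplicate plates.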

As to NCI-H1792, the relative viability (first compound 0.253 µM) turned out to be 0.688, the relative viability (first compound 2.53 µM) is 0.667 and the relative viability (first compound 8 µM) came to 0.477.
